The target of the test is Serine/threonine-protein kinase PLK1 (Homo sapiens, UniProt P53350). Put plainly: PLK1 kinase inhibition, dose response, selectivity assay for PKD inhibitor project, biochemical (AID 1383).
Chain of Serine/threonine-protein kinase PLK1 (P53350 whole entry): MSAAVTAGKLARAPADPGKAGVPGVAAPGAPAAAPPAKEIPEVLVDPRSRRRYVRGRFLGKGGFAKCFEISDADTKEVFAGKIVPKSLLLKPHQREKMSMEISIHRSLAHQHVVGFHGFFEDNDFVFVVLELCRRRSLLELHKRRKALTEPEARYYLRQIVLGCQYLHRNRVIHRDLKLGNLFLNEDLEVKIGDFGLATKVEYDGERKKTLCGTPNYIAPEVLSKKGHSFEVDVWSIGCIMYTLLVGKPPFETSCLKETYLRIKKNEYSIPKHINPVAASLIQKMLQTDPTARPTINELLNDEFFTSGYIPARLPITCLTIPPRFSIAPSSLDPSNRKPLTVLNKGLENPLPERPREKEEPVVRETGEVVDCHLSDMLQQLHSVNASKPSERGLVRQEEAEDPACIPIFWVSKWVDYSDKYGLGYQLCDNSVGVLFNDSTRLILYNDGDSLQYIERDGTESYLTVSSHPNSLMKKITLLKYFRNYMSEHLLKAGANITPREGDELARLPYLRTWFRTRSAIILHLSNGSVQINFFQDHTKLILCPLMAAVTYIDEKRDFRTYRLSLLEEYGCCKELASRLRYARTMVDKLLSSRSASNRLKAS

Consider `N=C(N)NC(=O)c1nc(Cl)c(N)nc1N` [3,5-diamino-N-carbamimidoyl-6-chloropyrazine-2-carboxamide], for which inhibition was half-maximal at 6.63 µM (IC50).

For the molecule `CC(=O)Oc1cc(OC(C)=O)c2c(C)cc(=O)oc2c1` [(5-acetyloxy-4-methyl-2-oxochromen-7-yl) acetate], the half-inhibitory concentration (IC50) (as a rule, the concentration that inhibits the measured activity by half) was above 50 µM.

The molecule `Cc1cc(NCCCN)nc(-c2ccccc2O)n1` [MLS000079650] yielded an IC50 above 50 µM.

For the molecule `CCC(=O)Nc1c2c(nn1-c1ccccc1C)CSC2` [MLS000087884], the IC50 was above 50 µM.

For the molecule `CS(=O)(=O)N1CCN(c2ccccc2NC(=O)c2ccc(Br)o2)CC1` [MLS000123947], the IC50 was above 50 µM.

`NC(=O)c1cn([C@@H]2O[C@H](CO)[C@@H](O)[C@H]2O)c2ncnc(N)c12` [MLS000517268] returned a half-inhibitory concentration (IC50) of 12.1 µM.

Take `O=C(Nc1ccc(CN2CCOCC2)cc1)c1ccc(-c2cccc(Cl)c2)o1` [MLS000557592]: the half-inhibitory concentration (IC50) is above 50 µM.

For `CCC1=NNc2cccc3c(OC)ccc1c23` [SMR000140796], the IC50 is above 50 µM.

`Clc1cncc(Cl)c1N=NCc1ccncc1` [SMR000206620] returned an IC50 above 50 µM.
